Experimental data reported in PMC10177262, “A Novel CD206 Targeting Peptide Inhibits Bleomycin-Induced Pulmonary Fibrosis in Mice” (Cells, 2023).

Tested on: BLM-induced lung fibrosis in C57BL/6J mice
Experiment: Late BLM model, comparison and combination with Pirfenidone
Format: in vivo, mouse
Settings: RP-832c 10 mg/kg QD; Pirfenidone 30 mg/kg Q3D; monotherapy, 21 days; n = 6
Description: C57BL/6J mice were obtained from Envigo, Indianapolis, IN, USA. All animal studies were approved by the IACUC (Murigenics, Inc., Vallejo, CA, USA). After 3 days of acclimation, the mice were challenged with a single 2.5 U/kg body weight dose of bleomycin (BLM) intratracheally (IT), and a vehicle (normal saline) or RP-832c(QD) was administered subcutaneously for 21 days starting 3- and 14-days post-BLM-challenge. Body weights were measured daily, and lung weight was measured at the end of each study.
At the end of the study, the mice were sacrificed using CO2 followed by cervical dislocation (according to IACUC guidelines), and the lungs were collected and fixed in 10% formalin. After 48 h of fixation, the lungs were processed into tissue sections. […] All slides were scanned using a Leica Aperio SC2 scanner and blindly evaluated by two independent pathologists. A total of 10 representative fields of 20× IHC images per tissue section were individually analyzed for the total number of cells/area using a confocal microscope (Olympus, New York, NY, USA). All quantitative data were normalized to appropriate control images.
Pirfenidone and Nintedanib are the only two FDA-approved drugs for lung fibrosis; therefore, we tested any synergistic effects of RP-832c peptide with these drugs. […] Combination therapy was also evaluated (Figure 5A and Figure S5). […]

Compound: Cc1ccc(=O)n(-c2ccccc2)c1 [Pirfenidone]
- CD206 expression in lung (IHC): decreased CD206 expression
